The text below walks through data of US11319274B2, “Process for the preparation of polymorph form B of treprostinil diethanolamine salt” (CHINOIN GYÓGYSZER ÉS VEGYÉSZETI TERMÉKEK GYÁRA ZRT., priority 2018, dated 2022).

For data set [1] the following is noted: cited from earlier work; for polymorph stability: as stated in WO2005/007081.
For data set [2] the following is noted: crystalline polymorph, as stated in WO2005/007081; cited from earlier work.
Data set [3] can be described thus: hygroscopic character of the polymorph forms. It is filed as physicochemical. To be noted: crystals from methanol-methyl tertiary-butyl ether at −70° C. (example 17). The protocol:
(§1) The two polymorph forms (forms A and B) of the crystalline treprostinil diethanolamine salt were first described in patent specification WO2005/007081. The polymorph forms were characterized by their melting point, X-ray powder diffraction pattern, DSC (Differential Scanning calorimetry) and TGA (Thermogravimetric Analysis) curves, and by their hygroscopic character.
(§2) Polymorph form B of treprostinil diethanolamine salt was obtained also if the salt was dissolved in methanol, the solution was set to opalescent with methyl tertiary-butyl ether at 45° C. and then crystallisation was completed at room temperature (yield 87%) (example 16.). […] This form is named polymorph form C (example 17.).

The nature of data set [4]: relative stability / transformation of the polymorph forms. It is filed as physicochemical. The settings on record: on the basis of the DSC curve; transforms in the DSC tube into the more stable, higher melting form.
Excerpt: as §1
Publication Organic Process & Development, 2009, 13, 242-249. (Crystallization Process Development for Stable Polymorph of Treprostinil; Batra, H.; Penmasta, R.; Phares, K.; Staszewski, J.; Tuladhar, S. M; D. A. Walsh, United Therapeutics) describes in detail the physical characteristics of the two polymorphs and the experiments carried out for their preparation.
as §2
DSC: • Instrument: METTLER TOLEDO DSC1 STARe System, Stare basic V9.30 • Method: Starting temperature: 30° C. • Final temperature: 150° C. • Heating rate: 5° C./min • Amount: 2-6 mg, perforated aluminum crucible (40 μl)

Where a name gives a salt, the structure may show the parent alone. Read-outs that look alike come from different tables or passages of the source.

Consider `CCCCC[C@H](O)CC[C@@H]1[C@H]2Cc3cccc(OCC(=O)O)c3C[C@H]2C[C@H]1O` [form B, (1R,2R,3aS,9aS)-2-[2-Hydroxy-1-[3(S)-hydroxyoctyl]-2,3,3a,4,9,9a-hexahydro-1H-benz[f]inden-5-yloxy] acetic acid diethanolamine salt], for which, in data set [1], the polymorph stability result was “more stable”. Moreover, in data set [2], the hygroscopic character entry is “much less hygroscopic”.

Consider `CCCCC[C@H](O)CC[C@@H]1[C@H]2Cc3cccc(OCC(=O)O)c3C[C@H]2C[C@H]1O` [polymorph form C, (1R,2R,3aS,9aS)-2-[2-Hydroxy-1-[3(S)-hydroxyoctyl]-2,3,3a,4,9,9a-hexahydro-1H-benz[f]inden-5-yloxy] acetic acid diethanolamine salt], for which, in data set [3], the hygroscopic character result was “highly hygroscopic”. Also, the polymorph stability entry in data set [4] is “less stable form”.

Consider `CCCCC[C@H](O)CC[C@@H]1[C@H]2Cc3cccc(OCC(=O)O)c3C[C@H]2C[C@H]1O` [form A, (1R,2R,3aS,9aS)-2-[2-Hydroxy-1-[3(S)-hydroxyoctyl]-2,3,3a,4,9,9a-hexahydro-1H-benz[f]inden-5-yloxy] acetic acid diethanolamine salt], for which, in data set [1] (Organic Process & Development, 2009, 13, 242-249), the transformation on standing result is on record as “on standing transforms into the thermodynamically more stable form B”. The polymorph stability entry in data set [1] is reported as “metastable”. The transformation in suspension entry in data set [1] (suspension in organic solvents (1,4-dioxane, isopropanol, tetrahydrofuran, toluene), agitation at different temperatures, WO2005/007081) is on record as “transforms into form B on agitation”. Further, the hygroscopic character result in data set [2] is reported as “hygroscopic”.
